{"source": "patent US9505796B2", "about": "“Phosphorylated A2A receptor agonists” (Crozet Medical GMBH, priority 2006, dated 2016)", "key": {"[1]": {"molecular_target": "T1, A3 receptor human recombinant receptors expressed in CHO cells (Homo sapiens, UniProt P0DMS8)", "T1 construct": "expressed in transfected cells; host or cells: CHO cells", "T1 sequence (P0DMS8 1-318)": "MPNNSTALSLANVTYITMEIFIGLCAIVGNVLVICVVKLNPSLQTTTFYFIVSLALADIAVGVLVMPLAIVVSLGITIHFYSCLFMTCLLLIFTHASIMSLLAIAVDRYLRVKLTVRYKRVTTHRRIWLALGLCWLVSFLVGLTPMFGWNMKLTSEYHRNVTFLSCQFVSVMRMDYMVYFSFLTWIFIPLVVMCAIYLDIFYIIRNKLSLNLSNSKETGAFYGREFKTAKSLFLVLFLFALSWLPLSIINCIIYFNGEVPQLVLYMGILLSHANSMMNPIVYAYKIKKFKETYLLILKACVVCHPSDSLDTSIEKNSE", "assay": "A3 adenosine receptor radioligand binding vs. [3H]PSB-11", "conditions": "human recombinant receptors in CHO cells vs. [3H]PSB-11 (antagonist radioligand; agonist affinities underestimated)", "source_text": "(§1) Tris was obtained from Acros Organics (Leverkusen, Germany); DMSO was from Fluka (Switzerland), HCl was from Merck, HAT supplement from Gibco. [^3H]CCPA ([^3H]2-chloro-N^6-cyclopentyladenosine), [^3H]MSX-2 ([^3H]3-(3-hydroxypropyl)-7-methyl-8-(m-methoxy-styryl)-1-propargylxanthine) (84 Ci/mmol), and [^3H]DSB-11 ([^3H]8-ethyl-4-methyl-2-phenyl-(8R)-4,5,7,8-tetrahydro-1H-imidazo[2,1-i]-purin-5-one (53 Ci/mmol)) were custom-labeled by Amersham. All other chemical reagents, cell culture materials and adenosine receptor ligands were obtained from Sigma.\n(§2) Radioligand binding studies were performed as previously described.^7,8"}, "[2]": {"molecular_target": "T2, A2A receptor rat brain striatal membranes (Rattus norvegicus, UniProt P30543)", "T2 construct": "A2A receptor rat brain; from tissue; host or cells: rat brain striatal membranes", "T2 sequence (P30543 whole entry)": "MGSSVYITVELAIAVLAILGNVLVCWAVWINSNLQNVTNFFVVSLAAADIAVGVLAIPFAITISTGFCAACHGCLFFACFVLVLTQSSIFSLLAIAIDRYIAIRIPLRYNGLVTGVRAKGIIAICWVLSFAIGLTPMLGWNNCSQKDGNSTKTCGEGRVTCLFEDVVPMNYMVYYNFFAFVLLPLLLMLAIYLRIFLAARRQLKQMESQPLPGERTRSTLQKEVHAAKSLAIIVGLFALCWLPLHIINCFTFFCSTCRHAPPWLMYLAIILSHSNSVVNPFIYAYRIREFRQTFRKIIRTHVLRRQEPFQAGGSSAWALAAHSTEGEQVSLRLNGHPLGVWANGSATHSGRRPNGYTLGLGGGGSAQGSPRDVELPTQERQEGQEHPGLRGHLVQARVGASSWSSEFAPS", "assay": "A2A adenosine receptor radioligand binding, rat brain striatal membranes", "source_text": "as §1, §2"}, "[3]": {"molecular_target": "T3, A1 receptor rat brain cortical membranes (Rattus norvegicus, UniProt P25099)", "T3 construct": "A1 receptor rat brain; from tissue; host or cells: rat brain cortical membranes", "T3 sequence (P25099 1-326)": "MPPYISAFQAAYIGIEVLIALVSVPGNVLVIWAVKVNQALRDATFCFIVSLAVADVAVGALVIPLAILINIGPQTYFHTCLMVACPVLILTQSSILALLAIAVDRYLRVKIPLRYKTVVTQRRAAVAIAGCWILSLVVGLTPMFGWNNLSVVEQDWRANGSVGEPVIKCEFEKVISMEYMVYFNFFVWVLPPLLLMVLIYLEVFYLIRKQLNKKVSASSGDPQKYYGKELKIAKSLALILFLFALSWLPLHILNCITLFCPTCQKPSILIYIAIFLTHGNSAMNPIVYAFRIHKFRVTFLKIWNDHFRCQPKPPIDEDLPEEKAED", "assay": "A1 adenosine receptor radioligand binding vs. [3H]CCPA", "conditions": "rat brain cortical membranes vs. [3H]CCPA (agonist radioligand)", "source_text": "as §1, §2"}, "[4]": {"molecular_target": "T4, recombinant soluble glutathione-S-transferase/ecto-5′-nucleotidase fusion protein (rat enzyme) (Rattus norvegicus, UniProt P21588)", "T4 construct": "Catalytically active recombinant soluble glutathione-S-transferase/ecto-5′-nucleotidase fusion protein; Dr. Herbert Zimmermann, University of Frankfurt (gift); host or cells: insect cells, baculovirus system", "T4 sequence (P21588 29-551 limits assumed)": "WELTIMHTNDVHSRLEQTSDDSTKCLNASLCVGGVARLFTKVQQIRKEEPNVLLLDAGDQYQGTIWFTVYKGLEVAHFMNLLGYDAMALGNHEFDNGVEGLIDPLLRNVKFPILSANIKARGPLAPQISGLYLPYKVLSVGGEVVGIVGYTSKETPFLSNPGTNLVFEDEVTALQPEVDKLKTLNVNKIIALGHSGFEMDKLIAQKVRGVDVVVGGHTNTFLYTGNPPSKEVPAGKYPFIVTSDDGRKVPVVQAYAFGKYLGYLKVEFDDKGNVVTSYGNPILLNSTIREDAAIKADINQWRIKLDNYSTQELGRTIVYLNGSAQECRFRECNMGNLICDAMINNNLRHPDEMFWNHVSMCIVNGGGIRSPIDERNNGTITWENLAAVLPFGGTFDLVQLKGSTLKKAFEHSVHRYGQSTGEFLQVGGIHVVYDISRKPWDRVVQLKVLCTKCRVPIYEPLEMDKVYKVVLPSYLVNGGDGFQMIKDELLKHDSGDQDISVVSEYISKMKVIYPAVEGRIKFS", "assay": "Ecto-5′-nucleotidase substrate specificity assay by capillary electrophoresis", "assay_type": "biochemical", "conditions": "500 μM nucleoside 5′-monophosphate, 37° C., 20 min; relative to AMP set at 100%; n = 3", "procedure": "Catalytically active recombinant soluble glutathione-S-transferase/ecto-5′-nucleotidase fusion protein (rat enzyme) was expressed in insect cells using the baculovirus system and purified by affinity chromatography using agarose-coupled GSH as previously described.^6 The enzyme was obtained from Prof. Dr. Herbert Zimmermann, University of Frankfurt.\nCompounds were dissolved in DMSO to obtain 5.0 mM stock solutions. These were further diluted to obtain 1 mM solutions in assay buffer (10 mM Hepes, pH 7.4, 2 mM MgCl2, 1 mM CaCl2). The 1 mM solutions were further diluted in the same buffer as required for the standard calibration curves and the enzyme assays.\nCE separations were carried out using a P/ACE MDQ system (Beckman Coulter Instruments, Fullerton, Calif., USA) equipped with a DAD detection system. The electrophoretic separations were carried out using an eCAP fused-silica capillary [30 cm (20 cm effective length), ×75 μm internal diameter (I.D), ×375 μm outside diameter (0.D) obtained from Beckman Coulter]. The following conditions were applied: T=25° C., λmax=232 nm, voltage=15 kV, running buffer 40 mM sodium borate buffer, pH 9.1. The capillary was washed with 0.1 M NaOH for 2 min, deionized water for 1 min, and running buffer for 1 min before each injection. Injections were made by applying 0.1 psi of pressure to the sample solution for 30 s. The amount of adenosine or other nucleosides formed was determined. The CE instrument was fully controlled through a personal computer, which operated with the analysis software 32 KARAT obtained from Beckman Coulter. Electropherograms were evaluated using the same software.\nEcto-5′-nucleotidase substrate specificity assays were performed by using capillary electrophoresis method. Enzyme substrate assays were carried out at 37° C. in a final volume of 100 μl. The reaction mixture contained 500 μM of the nucleoside 5′-monophosphate to be investigated dissolved in reaction buffer (10 mM Hepes, pH 7.4, 2 mM MgCl2, 1 mM CaCl2). The reactions were initiated by adding 10 μl of the appropriately diluted enzyme and was then allowed to proceed at 37° C. for 20 min. The reaction was stopped by heating the mixture at 99° C. for 5 min. Aliquots of 50 μl of the reaction mixture were transferred to mini CE vials and injected into the CE instrument under the conditions described above. The absorbance at 232 nm was monitored continuously and the nucleoside concentrations were determined from the area under each absorbance peak. The experiments were repeated twice with triplicate injections. Control experiments were performed in the absence of substrate and in the absence of enzyme in order to take into account the spontaneous hydrolysis of nucleoside-5′ monophosphates under the experimental conditions, which always amounted to less than 1%.\nFor the quantification of the dephosphorylation reaction products, we applied the internal normalization method. Thus, the individual peak areas reflected directly the relative content of a corresponding analyte. […] It was verified that in fact there were no observable differences in detector response at the used wavelength and thus no additional correction factors had to be employed for the calculation of the amount of product relative to the amount of substrate. This method is also completely independent of the amount of substrate injected into the capillary which represents 100% at zero reaction time.\nBesides AMP, other nucleoside 5′-monophosphates (FIG. 1) were investigated as alternative substrates of ecto-5′-NT. All nucleotides (AMP) were used at a concentration of 500 μM in the presence of 2 mM MgCl2, 1 mM CaCl2, 10 mM Hepes, pH, 7.4, and suitably diluted ecto-5′-NT. Some of the nucleoside 5′-monophosphates were efficiently dephosphorylated to the corresponding nucleosides by the enzyme (Table 1)."}, "[5]": {"conditions": "rat brain striatal membranes vs. [3H]MSX-2 (antagonist radioligand; agonist affinities underestimated)"}}, "note": "Values joined by “and” are separate entries in the source; they are usually repeats but may differ in a detail not shown here. Identical values can stand only once."}
{"compound": "2-(Benzylthio)adenosine-5′-monophosphate [Compound 8]", "values": [{"measurement": "Ki", "setting": "[1]", "value": 0.12, "unit": "µM"}, {"measurement": "Ki", "setting": "[2]; [5]", "value": 8.56, "unit": "µM"}, {"measurement": "Ki", "setting": "[3]", "value": 0.927, "unit": "µM"}]}
{"compound": "2-(Cyclohexylethylthio)adenosine-5′-monophosphate [Compound 3]", "values": [{"measurement": "Ki", "setting": "[1]", "value": 3.6, "unit": "µM"}]}
{"compound": "2-(Cyclohexylmethylthio)adenosine-5′-monophosphate [Compound 2]", "values": [{"measurement": "Ki", "setting": "[1]", "value": 1.7, "unit": "µM"}]}
{"compound": "2-(Hexylthio)adenosine-5′-monophosphate [Compound 6]", "values": [{"measurement": "Ki", "setting": "[1]", "value": 2.3, "unit": "µM"}, {"measurement": "Ki", "setting": "[2]; [5]", "value": 1, "unit": "µM"}, {"measurement": "Ki", "setting": "[3]", "value": 0.256, "unit": "µM"}]}
{"compound": "2-(Phenylethylthio)adenosine-5′-monophosphate [Compound 9]", "values": [{"measurement": "Ki", "setting": "[1]", "value": 1.2, "unit": "µM"}]}
{"compound": "2-(Propylthio)adenosine-5′-monophosphate [Compound 4]", "values": [{"measurement": "Ki", "setting": "[2]; rat brain striatal membranes vs. [3H]CGS21680 (agonist radioligand)", "value": 1.35, "unit": "µM"}, {"measurement": "Ki", "setting": "[3]", "value": 1.27, "unit": "µM"}]}
{"compound": "Nc1ncnc2c1ncn2[C@@H]1O[C@H](COP(=O)(O)O)[C@@H](O)[C@H]1O", "note": "[AMP, adenosine monophosphate, reference compound]", "values": [{"measurement": "Dephosphorylation (%) by ecto-5′-nucleotidase in comparison with AMP", "setting": "[4]", "value": "100 ± 1.15", "unit": "%"}]}
{"compound": "Nc1nc(SC2CCCCC2)nc2c1ncn2[C@@H]1O[C@H](COP(=O)(O)O)[C@@H](O)[C@H]1O", "note": "[Compound 1, 2-(Cyclohexylthio)adenosine-5′-monophosphate]", "values": [{"measurement": "Dephosphorylation (%) by ecto-5′-nucleotidase in comparison with AMP", "setting": "[4]", "value": "27.5 ± 1.45", "unit": "%"}]}
{"compound": "Nc1nc(SCC2CCCCC2)nc2c1ncn2[C@@H]1O[C@H](COP(=O)(O)O)[C@@H](O)[C@H]1O", "note": "[Compound 2, 2-(Cyclohexylmethylthio)adenosine-5′-monophosphate]", "values": [{"measurement": "Dephosphorylation (%) by ecto-5′-nucleotidase in comparison with AMP", "setting": "[4]", "value": "70.5 ± 1.17", "unit": "%"}]}
{"compound": "Nc1nc(SCCC2CCCCC2)nc2c1ncn2[C@@H]1O[C@H](COP(=O)(O)O)[C@@H](O)[C@H]1O", "note": "[Compound 3, 2-(Cyclohexylethylthio)adenosine-5′-monophosphate]", "values": [{"measurement": "Dephosphorylation (%) by ecto-5′-nucleotidase in comparison with AMP", "setting": "[4]", "value": "95% and 95.7 ± 1.15%"}]}
{"compound": "CCCSc1nc(N)c2ncn([C@@H]3O[C@H](COP(=O)(O)O)[C@@H](O)[C@H]3O)c2n1", "note": "[Compound 4, 2-(Propylthio)adenosine-5′-monophosphate]", "values": [{"measurement": "Dephosphorylation (%) by ecto-5′-nucleotidase in comparison with AMP", "setting": "[4]", "value": "46.8 ± 10.5", "unit": "%"}]}
{"compound": "C=CCSc1nc(N)c2ncn([C@@H]3O[C@H](COP(=O)(O)O)[C@@H](O)[C@H]3O)c2n1", "note": "[Compound 5, 2-(Allylthio)adenosine-5′-monophosphate]", "values": [{"measurement": "Dephosphorylation (%) by ecto-5′-nucleotidase in comparison with AMP", "setting": "[4]", "value": 0, "unit": "%"}]}
{"compound": "CCCCCCSc1nc(N)c2ncn([C@@H]3O[C@H](COP(=O)(O)O)[C@@H](O)[C@H]3O)c2n1", "note": "[Compound 6, 2-(Hexylthio)adenosine-5′-monophosphate]", "values": [{"measurement": "Dephosphorylation (%) by ecto-5′-nucleotidase in comparison with AMP", "setting": "[4]", "value": "84.2 ± 2.61", "unit": "%"}]}
{"compound": "Nc1nc(SCc2ccccc2)nc2c1ncn2[C@@H]1O[C@H](COP(=O)(O)O)[C@@H](O)[C@H]1O", "note": "[Compound 8, 2-(Benzylthio)adenosine-5′-monophosphate]", "values": [{"measurement": "Dephosphorylation (%) by ecto-5′-nucleotidase in comparison with AMP", "setting": "[4]", "value": 0, "unit": "%"}]}
{"compound": "Nc1nc(SCCc2ccccc2)nc2c1ncn2[C@@H]1O[C@H](COP(=O)(O)O)[C@@H](O)[C@H]1O", "note": "[Compound 9, 2-(Phenylethylthio)adenosine-5′-monophosphate]", "values": [{"measurement": "Dephosphorylation (%) by ecto-5′-nucleotidase in comparison with AMP", "setting": "[4]", "value": 0, "unit": "%"}]}
{"compound": "C#CCSc1nc(N)c2ncn([C@@H]3O[C@H](COP(=O)(O)O)[C@@H](O)[C@H]3O)c2n1", "note": "[Example No. 10, 2-Propargylthioadenosine-5′-monophosphate]", "values": [{"measurement": "Ki", "setting": "[1]", "value": 10.4, "unit": "µM"}, {"measurement": "Ki", "setting": "[3]", "value": 0.994, "unit": "µM"}]}
